Source: patent US20160002204A1 (Board of Regents, The University of Texas System, priority 2014, published 2016)

How the values were obtained:
[1] = target: T1, GLS1 (purified recombinant human GAC) (Homo sapiens, UniProt O94925); test: GLS1 enzymatic activity assay (dual-coupled, Amplex UltraRed/resorufin); assay type: biochemical
T1 sequence (O94925 55-598 isoform O94925-3 limits assumed): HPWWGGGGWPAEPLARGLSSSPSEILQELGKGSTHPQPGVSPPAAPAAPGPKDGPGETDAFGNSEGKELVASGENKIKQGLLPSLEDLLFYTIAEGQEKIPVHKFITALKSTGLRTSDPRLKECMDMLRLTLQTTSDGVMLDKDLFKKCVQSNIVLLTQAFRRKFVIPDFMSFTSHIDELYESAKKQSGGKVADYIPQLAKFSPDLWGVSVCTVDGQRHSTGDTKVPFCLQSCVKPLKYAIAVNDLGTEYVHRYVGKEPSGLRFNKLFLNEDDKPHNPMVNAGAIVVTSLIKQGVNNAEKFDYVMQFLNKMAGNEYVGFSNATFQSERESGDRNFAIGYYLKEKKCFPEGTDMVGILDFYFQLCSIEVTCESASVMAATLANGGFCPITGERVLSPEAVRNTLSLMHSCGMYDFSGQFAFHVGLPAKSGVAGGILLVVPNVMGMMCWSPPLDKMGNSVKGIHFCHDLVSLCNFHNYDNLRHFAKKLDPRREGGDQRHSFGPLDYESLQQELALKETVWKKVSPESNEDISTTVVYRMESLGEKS
Procedure, shortened: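 Recombinant human GAC (2 nM) preincubated with 50 mM potassium phosphate, then inhibitor (10 min each, RT); 1 mM glutamine, pH 7.4 Hepes buffer, 1% DMSO. Glutamate coupled via glutamate oxidase/HRP to resorufin (Ex 530/Em 590), kinetic or 20-min endpoint; IC50 by four-parameter logistic fit.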

A549 cells = test: A549 proliferation (viability) assay, Cell Titer Fluor, 72 hours; assay type: cell-based; details: Homo sapiens
Procedure, shortened: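 A549 cells seeded at 1000 cells/well, left 24 h, then exposed to compound for 72 h at 37 °C, 5% CO2, final DMSO 0.5% (v/v). Viability read by Cell Titer Fluor fluorescence; EC50 from four-parameter logistic fit.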

| IC50 [1] [nM] | EC50 (A549 cells) [nM] | SMILES |
| --- | --- | --- |
| < 100 | 500 to 5000 | Cc1cccc(CNC(=O)c2cn(CC(F)CCn3ccc(NC(=O)Cc4ccccc4)cc3=O)nn2)n1 (centres unmarked) [Example 165, 1-{2-fluoro-4-[2-oxo-4-(2-phenylacetamido)-1,2-dihydropyridin-1-yl]butyl}-N-[(6-methylpyridin-2-yl)methyl]-1H-1,2,3-triazole-4-carboxamide] |
| < 100 | < 100 | O=C(CC1CCC(F)(F)CC1)Nc1ccn(CCCCn2cc(C(=O)NCc3cccc(OC(F)(F)F)c3)nn2)c(=O)c1 [Example 166, 1-(4-{4-[2-(4,4-difluorocyclohexyl)acetamido]-2-oxo-1,2-dihydropyridin-1-yl}butyl)-N-{[3-(trifluoromethoxy)phenyl]methyl}-1H-1,2,3-triazole-4-carboxamide] |
| < 100 | < 100 | O=C(NCc1cccc(OC(F)(F)F)c1)c1cn(CCCCn2ccc(NC(=O)C(F)c3ccccc3)cc2=O)nn1 (centres unmarked) [Example 167, 1-{4-[4-(2-fluoro-2-phenylacetamido)-2-oxo-1,2-dihydropyridin-1-yl]butyl}-N-{[3-(trifluoromethoxy)phenyl]methyl}-1H-1,2,3-triazole-4-carboxamide] |
| < 100 | 500 to 5000 | O=C(CC1CC1(F)F)Nc1ccn(CCCCn2cc(C(=O)NCc3cccc(OC(F)(F)F)c3)nn2)c(=O)c1 (centres unmarked) [Example 168, 1-(4-{4-[2-(2,2-difluorocyclopropyl)acetamido]-2-oxo-1,2-dihydropyridin-1-yl}butyl)-N-{[3-(trifluoromethoxy)phenyl]methyl}-1H-1,2,3-triazole-4-carboxamide] |
| < 100 | 100 to 500 | O=C(CC1CCSCC1)Nc1ccn(CCCCn2cc(C(=O)NCc3cccc(OC(F)(F)F)c3)nn2)c(=O)c1 [Example 169, 1-(4-{2-oxo-4-[2-(thian-4-yl)acetamido]-1,2-dihydropyridin-1-yl}butyl)-N-{[3-(trifluoromethoxy)phenyl]methyl}-1H-1,2,3-triazole-4-carboxamide] |
| < 100 | 100 to 500 | COC1CCC(CC(=O)Nc2ccn(CCCCn3cc(C(=O)NCc4cccc(OC(F)(F)F)c4)nn3)c(=O)c2)CC1 (centres unmarked) [Example 170, 1-(4-{4-[2-(4-methoxycyclohexyl)acetamido]-2-oxo-1,2-dihydropyridin-1-yl}butyl)-N-{[3-(trifluoromethoxy)phenyl]methyl}-1H-1,2,3-triazole-4-carboxamide] |
| 100 to 500 | 500 to 5000 | O=C(Cc1ccccc1)Nc1cnn(CCCCn2cc(C(=O)NCc3cccc(OC(F)(F)F)c3)nn2)c(=O)c1 [Example 172, 1-{4-[6-oxo-4-(2-phenylacetamido)-1,6-dihydropyridazin-1-yl]butyl}-N-{[3-(trifluoromethoxy)phenyl]methyl}-1H-1,2,3-triazole-4-carboxamide] |
| < 100 | < 100 | O=C(Cc1ccccc1)Nc1ccn(CCCCn2cc(C(=O)NCc3cccc(OC(F)(F)F)c3)nn2)c(=O)c1F [Example 173, 1-{4-[3-fluoro-2-oxo-4-(2-phenylacetamido)-1,2-dihydropyridin-1-yl]butyl}-N-{[3-(trifluoromethoxy)phenyl]methyl}-1H-1,2,3-triazole-4-carboxamide] |
| < 100 | 100 to 500 | O=C(Nc1ccn(CCCCn2cc(C(=O)NCc3cccc(OC(F)(F)F)c3)nn2)c(=O)c1)OC1CCC(F)(F)CC1 [Example 174, 4,4-difluorocyclohexyl N-(2-oxo-1-{4-[4-({[3-(trifluoro-methoxy)phenyl]methyl}carbamoyl)-1H-1,2,3-triazol-1-yl]butyl}-1,2-dihydropyridin-4-yl)carbamate] |
| < 100 | < 100 | O=C(CC1CCCCC1)Nc1ccn(CCC(F)Cn2cc(C(=O)NCc3cccc(OC(F)(F)F)c3)nn2)c(=O)c1 (centres unmarked) [Example 175, 1-{4-[4-(2-cyclohexylacetamido)-2-oxo-1,2-dihydropyridin-1-yl]-2-fluorobutyl}-N-{[3-(trifluoromethoxy)phenyl]methyl}-1H-1,2,3-triazole-4-carboxamide] |
| < 100 | < 100 | O=C(CC1CCCCC1)Nc1ccn(CCC(F)Cn2cc(C(=O)NCc3cc(OC(F)(F)F)ccc3F)nn2)c(=O)c1 (centres unmarked) [Example 176, 1-{4-[4-(2-cyclohexylacetamido)-2-oxo-1,2-dihydropyridin-1-yl]-2-fluorobutyl}-N-{[2-fluoro-5-(trifluoromethoxy)phenyl]methyl}-1H-1,2,3-triazole-4-carboxamide] |
| < 100 | < 100 | Cc1ccc(CNC(=O)c2cn(CC(F)CCn3ccc(NC(=O)CC4CCCCC4)cc3=O)nn2)cn1 (centres unmarked) [Example 177, 1-{4-[4-(2-cyclohexylacetamido)-2-oxo-1,2-dihydropyridin-1-yl]-2-fluorobutyl}-N-[(6-methylpyridin-3-yl)methyl]-1H-1,2,3-triazole-4-carboxamide] |
| < 100 | < 100 | O=C(CC1CCCCC1)Nc1ccn(CCC(F)Cn2cc(C(=O)NCc3cc(C(F)(F)F)ccn3)nn2)c(=O)c1 (centres unmarked) [Example 178, 1-{4-[4-(2-cyclohexylacetamido)-2-oxo-1,2-dihydropyridin-1-yl]-2-fluorobutyl}-N-{[4-(trifluoromethyl)pyridin-2-yl]methyl}-1H-1,2,3-triazole-4-carboxamide] |
| < 100 | 500 to 5000 | O=C(CC1CCS(=O)(=O)CC1)Nc1ccn(CCCCn2cc(C(=O)NCc3cccc(OC(F)(F)F)c3)nn2)c(=O)c1 [Example 179, 1-(4-{4-[2-(1,1-dioxo-1$l^6-thian-4-yl)acetamido]-2-oxo-1,2-dihydropyridin-1-yl}butyl)-N-{[3-(trifluoromethoxy)phenyl]methyl}-1H-1,2,3-triazole-4-carboxamide] |
| < 100 | < 100 | O=C(Cc1ccccc1)Nc1ccn(CCC(F)Cn2cc(C(=O)NCc3cccc(OC(F)(F)F)c3)nn2)c(=O)c1F (centres unmarked) [Example 180] |
| < 100 | 100 to 500 | O=C(CC1CCCCC1)Nc1ccn(CCCCn2cc(C(=O)NCc3cc(Cl)ccc3F)nn2)c(=O)c1 [Example 181, N-[(5-chloro-2-fluorophenyl)methyl]-1-{4-[4-(2-cyclohexylacetamido)-2-oxo-1,2-dihydropyridin-1-yl]butyl}-1H-1,2,3-triazole-4-carboxamide] |
| < 100 | 100 to 500 | O=C(Cc1ccccn1)Nc1ccn(CCC(F)Cn2cc(C(=O)NCc3cc(OC(F)(F)F)ccc3F)nn2)c(=O)c1 (centres unmarked) [Example 182, 1-(2-fluoro-4-{2-oxo-4-[2-(pyridin-2-yl)acetamido]-1,2-dihydropyridin-1-yl}butyl)-N-{[2-fluoro-5-(trifluoromethoxy)phenyl]methyl}-1H-1,2,3-triazole-4-carboxamide] |
| < 100 | 500 to 5000 | O=C(Cc1ccccn1)Nc1ccn(CCC(F)Cn2cc(C(=O)NCc3cccc(C(F)(F)F)c3)nn2)c(=O)c1 (centres unmarked) [Example 183, 1-(2-fluoro-4-{2-oxo-4-[2-(pyridin-2-yl)acetamido]-1,2-dihydropyridin-1-yl}butyl)-N-{[3-(trifluoromethyl)phenyl]methyl}-1H-1,2,3-triazole-4-carboxamide] |
| < 100 | < 100 | CO[C@H](C(=O)Nc1ccn(CCC(F)Cn2cc(C(=O)NCc3cccc(OC(F)(F)F)c3)nn2)c(=O)c1)c1ccccc1 (stereo partly drawn) [Example 184, 1-(2-fluoro-4-{4-[(2S)-2-methoxy-2-phenylacetamido]-2-oxo-1,2-dihydropyridin-1-yl}butyl)-N-{[3-(trifluoromethoxy)phenyl]methyl}-1H-1,2,3-triazole-4-carboxamide] |
| < 100 | 500 to 5000 | COCCOc1cccc(CC(=O)Nc2ccn(CCC(F)Cn3cc(C(=O)NCc4cccc(OC(F)(F)F)c4)nn3)c(=O)c2)c1 (centres unmarked) [Example 185, 1-[2-fluoro-4-(4-{2-[3-(2-methoxyethoxy)phenyl]acetamido}-2-oxo-1,2-dihydropyridin-1-yl)butyl]-N-{[3-(trifluoromethoxy)phenyl]methyl}-1H-1,2,3-triazole-4-carboxamide] |
| < 100 | < 100 | CO[C@@H](C(=O)Nc1ccn(CCC(F)Cn2cc(C(=O)NCc3cccc(OC(F)(F)F)c3)nn2)c(=O)c1)c1ccccc1 (stereo partly drawn) [Example 186, 1-(2-fluoro-4-{4-[(2R)-2-methoxy-2-phenylacetamido]-2-oxo-1,2-dihydropyridin-1-yl}butyl)-N-{[3-(trifluoromethoxy)phenyl]methyl}-1H-1,2,3-triazole-4-carboxamide] |
| < 100 | < 100 | O=C(CC1CCCCO1)Nc1ccn(CCC(F)Cn2cc(C(=O)NCc3cccc(OC(F)(F)F)c3)nn2)c(=O)c1 (centres unmarked) [Example 187, 1-(2-fluoro-4-{4-[2-(oxan-2-yl)acetamido]-2-oxo-1,2-dihydropyridin-1-yl}butyl)-N-{[3-(trifluoromethoxy)phenyl]methyl}-1H-1,2,3-triazole-4-carboxamide] |
